Data from US12084472B2 (Ardelyx, Inc., priority 2015, dated 2024).

The molecules below were run against T1, human TGR5 (Homo sapiens, UniProt Q8TDU6) (assay: Cell-based TGR5 assay (cAMP generation, HTRF)). Details: HEK293 cells stably transfected with human TGR5; cAMP by HTRF; 30 minutes at 37° C.; read-out: pEC50 Human TGR5 (converted).
T1 construct: expressed in transfected cells; host or cells: HEK293
T1 sequence (Q8TDU6 1-330): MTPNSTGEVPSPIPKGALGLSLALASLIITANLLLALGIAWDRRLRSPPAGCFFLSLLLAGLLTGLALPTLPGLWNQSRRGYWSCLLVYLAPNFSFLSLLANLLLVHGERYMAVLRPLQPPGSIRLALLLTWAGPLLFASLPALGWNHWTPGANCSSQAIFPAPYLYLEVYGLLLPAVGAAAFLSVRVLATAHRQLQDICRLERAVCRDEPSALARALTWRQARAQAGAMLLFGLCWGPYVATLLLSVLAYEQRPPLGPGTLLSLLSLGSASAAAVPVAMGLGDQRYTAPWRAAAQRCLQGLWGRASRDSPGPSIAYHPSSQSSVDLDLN
Outline: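 Read-out was HTRF detection of cAMP, converted to concentration via a standard curve and fitted (3-parameter logistic) for pEC50 and maximal response. Agonist stimulation used HEK293 cells stably transfected with human TGR5, incubated 30 min at 37° C in IBMX-containing buffer at 0.05 nM to 10 μM compound.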

| SMILES | EC50 |
| --- | --- |
| COCCCN(C[C@H](O)[C@@H](O)[C@H](O)[C@H](O)CO)C(=O)CCCCc1cc(Cl)c(COC2(c3cnccc3-c3ccccc3OC3CC3)CC2)cc1Cl [Compound I-220, 5-[2,5-dichloro-4-({1-[4-(2-cyclopropoxyphenyl)pyridin-3-yl]cyclopropoxy}methyl)phenyl]-N-(3-methoxypropyl)-N-[(2S,3R,4R,5R)-2,3,4,5,6-pentahydroxyhexyl]pentanamide] | 126 to 1000 nM |
| O=C(NCCCCCS(=O)(=O)c1ccc(Cl)c(COC2(c3cnccc3-c3ccccc3OC3CC3)CC2)c1)N[C@@H](CO)[C@@H](O)[C@H](O)[C@H](O)CO [Compound I-643, 1-{5-[4-chloro-3-({1-[4-(2-cyclopropoxyphenyl)pyridin-3-yl]cyclopropoxy}methyl)benzenesulfonyl]pentyl}-3-[(2S,3R,4S,5R)-1,3,4,5,6-pentahydroxyhexan-2-yl]urea] | < 100 nM |
| O=C(NCCCCCSc1ccc(Cl)c(COC2(c3cnccc3-c3ccccc3OC3CC3)CC2)c1)NC[C@H](O)[C@@H](O)[C@H](O)[C@H](O)CO [Compound I-488, 1-(5-[[4-Chloro-3-([1-[4-(2-cyclopropoxyphenyl)pyridin-3-yl]cyclopropoxy]methyl)phenyl]sulfanyl]pentyl)-3-[(2S,3R,4R,5R)-2,3,4,5,6-pentahydroxyhexyl]urea] | < 100 nM |
| CCN(C[C@H](O)[C@@H](O)[C@H](O)[C@H](O)CO)C(=O)CCCSc1ccc(Cl)c(COC2(c3cnccc3-c3ccccc3OC3CC3)CC2)c1 [Compound I-659, 4-{[4-chloro-3-({1-[4-(2-cyclopropoxyphenyl)pyridin-3-yl]cyclopropoxy}methyl)phenyl]sulfanyl}-N-ethyl-N-[(2S,3R,4R,5R)-2,3,4,5,6-pentahydroxyhexyl]butanamide] | < 100 nM |
| CC(=O)NCCCCN(CCCCSc1ccc(Cl)c(COC2(c3cnccc3-c3ccccc3OC3CC3)CC2)c1)C(=O)[C@@H](O)[C@@H](O)[C@H](O)[C@@H](O)CO [Compound I-568, (2S,3S,4R,5S)-N-(4-{[4-chloro-3-({1-[4-(2-cyclopropoxyphenyl)pyridin-3-yl]cyclopropoxy}methyl)phenyl]sulfanyl}butyl)-N-(4-acetamidobutyl)-2,3,4,5,6-pentahydroxyhexanamide] | < 100 nM |
| Oc1cc(Cl)c(CNC2(c3cnccc3-c3ccccc3OC3CC3)CC2)cc1Cl [Compound I-700, 2,5-dichloro-4-[([1-[4-(2-cyclopropoxyphenyl)pyridin-3-yl]cyclopropyl]amino)methyl]phenol] | < 100 nM |
| COc1cc(C)ccc1-c1ccncc1C1(OCc2cc(Cl)ccc2Cl)CC1 [Compound I-774, 3-(1-((2,5-dichlorobenzyl)oxy)cyclopropyl)-4-(2-methoxy-4-methylphenyl)pyridine] | 126 to 1000 nM |
| Cc1ccc(CCCCCNC(=O)NC[C@H](O)[C@@H](O)[C@H](O)[C@H](O)CO)nc1CNC1(c2cnccc2-c2ccccc2OC2CC2)CC1 [Compound I-707] | 1260 to 10000 nM |
| CC(=O)N1CCCN(S(=O)(=O)c2ccc(Cl)c(COC3(c4cnccc4-c4ccccc4OC4CC4)CC3)c2)CC1 [Compound I-732, 1-(4-[[4-chloro-3-([1-[4-(2-cyclopropoxyphenyl)pyridin-3-yl]cyclopropoxy]methyl)benzene]sulfonyl]-1,4-diazepan-1-yl)ethan-1-one] | < 100 nM |
| O=C(NCCCCc1cc(Cl)c(CNC2(c3cnccc3-c3ccccc3OC3CC3)CC2)cc1Cl)NC[C@H](O)[C@@H](O)[C@H](O)[C@H](O)CO [Compound I-138, 1-(4-{2,5-dichloro-4-[({1-[4-(2-cyclopropoxyphenyl)pyridin-3-yl]cyclopropyl}amino)methyl]phenyl}butyl)-3-[(2S,3R,4R,5R)-2,3,4,5,6-pentahydroxyhexyl]urea] | < 100 nM |
| CC(=O)N(CCCCCSc1ccc(Cl)c(COC2(c3cnccc3-c3ccccc3OC3CC3)CC2)c1)C[C@H](O)[C@@H](O)[C@H](O)[C@H](O)CO [Compound I-695, N-(5-{[4-chloro-3-({1-[4-(2-cyclopropoxyphenyl)pyridin-3-yl]cyclopropoxy}methyl)phenyl]sulfanyl}pentyl)-N-[(2S,3R,4R,5R)-2,3,4,5,6-pentahydroxyhexyl]acetamide] | < 100 nM |
| Cc1ccc(CCCCNC(=O)NC[C@H](O)[C@@H](O)[C@H](O)[C@H](O)CO)nc1CNC1(c2cnccc2-c2ccccc2OC2CC2)CC1 [Compound I-705] | 126 to 1000 nM |
| CS(=O)(=O)NCCN(CCCSc1ccc(Cl)c(CNC2(c3cnccc3-c3ccccc3OC3CC3)CC2)c1)C(=O)[C@@H](O)[C@@H](O)[C@H](O)[C@@H](O)CO [Compound I-585, (2S,3S,4R,5S)-N-[3-({4-chloro-3-[({1-[4-(2-cyclopropoxyphenyl)pyridin-3-yl]cyclopropyl}amino)methyl]phenyl}sulfanyl)propyl]-2,3,4,5,6-pentahydroxy-N-(2-methanesulfonamidoethyl) hexanamide] | < 100 nM |
| CC(CCCN(C(=O)[C@@H](O)[C@@H](O)[C@H](O)[C@@H](O)CO)C1CCS(=O)(=O)CC1)c1ccc(Cl)c(CNC2(c3cnccc3-c3ccccc3OC3CC3)CC2)c1 (stereo partly drawn) [Compound I-295, (2S,3S,4R,5S)-N-(4-{4-chloro-3-[({1-[4-(2-cyclopropoxyphenyl)pyridin-3-yl]cyclopropyl}amino)methyl]phenyl}pentyl)-N-(1,1-dioxo-1λ^6-thian-4-yl)-2,3,4,5,6-pentahydroxyhexanamide] | < 100 nM |
| CS(=O)(=O)NCCCN(CCCCSc1ccc(Cl)c(COC2(c3cnccc3-c3ccccc3OC3CC3)CC2)c1)C(=O)[C@@H](O)[C@@H](O)[C@H](O)[C@@H](O)CO [Compound I-577, (2S,3S,4R,5S)-N-(4-{[4-chloro-3-({1-[4-(2-cyclopropoxyphenyl)pyridin-3-yl]cyclopropoxy}methyl)phenyl]sulfanyl}butyl)-2,3,4,5,6-pentahydroxy-N-(3-methanesulfonamidopropyl) hexanamide] | < 100 nM |
| O=C(CCCCc1cc(Cl)c(COC2(c3cnccc3-c3ccccc3OC3CC3)CC2)cc1Cl)N[C@@H](CN1CCOCC1)[C@@H](O)[C@H](O)[C@H](O)CO (stereo in doubt) [Compound I-160, 5-[2,5-dichloro-4-({1-[4-(2-cyclopropoxyphenyl)pyridin-3-yl]cyclopropoxy}methyl)phenyl]-N-[(2S,3R,4S,5R)-3,4,5,6-tetrahydroxy-1-(morpholin-4-yl)hexan-2-yl]pentanamide] | < 100 nM |
| O=C(NCCOCCNS(=O)(=O)c1ccc(Cl)c(COC2(c3cnccc3-c3ccccc3OC3CC3)CC2)c1)N[C@@H](CO)[C@@H](O)[C@H](O)[C@H](O)CO (stereo in doubt) [Compound I-408, 1-(2-{2-[4-chloro-3-({1-[4-(2-cyclopropoxyphenyl)pyridin-3-yl]cyclopropoxy}methyl)benzenesulfonamido]ethoxy}ethyl)-3-[(2S,3R,4S,5R)-1,3,4,5,6-pentahydroxyhexan-2-yl]urea] | < 100 nM |
| O=C(CCCSc1ccc(Cl)c(COC2(c3cnccc3-c3ccccc3OC3CC3)CC2)c1)N(CCS(=O)(=O)N1CCOCC1)C[C@H](O)[C@@H](O)[C@H](O)[C@H](O)CO [Compound I-686, 4-{[4-chloro-3-({1-[4-(2-cyclopropoxyphenyl)pyridin-3-yl]cyclopropoxy}methyl)phenyl]sulfanyl}-N-[2-(morpholine-4-sulfonyl)ethyl]-N-[(2S,3R,4R,5R)-2,3,4,5,6-pentahydroxyhexyl]butanamide] | 126 to 1000 nM |
| Cc1cc(COC2(c3cnccc3-c3ccccc3OC3CC3)CC2)c(Cl)cc1CCCCNC(=O)NC[C@@H]1O[C@H](C(=O)O)[C@@H](O)[C@H](O)[C@H]1O [Compound I-110, (2S,3S,4R,5R,6S)-6-{[({4-[5-chloro-4-({1-[4-(2-cyclopropoxyphenyl)pyridin-3-yl]cyclopropoxy}methyl)-2-methylphenyl]butyl}carbamoyl)amino]methyl}-3,4,5-trihydroxyoxane-2-carboxylic acid] | < 100 nM |
| CNS(=O)(=O)CCN(C[C@H](O)[C@@H](O)[C@H](O)[C@H](O)CO)C(=O)CCCSc1ccc(Cl)c(COC2(c3cnccc3-c3ccccc3OC3CC3)CC2)c1 [Compound I-694, 4-{[4-chloro-3-({1-[4-(2-cyclopropoxyphenyl)pyridin-3-yl]cyclopropoxy}methyl)phenyl]sulfanyl}-N-[2-(methylsulfamoyl)ethyl]-N-[(2S,3R,4R,5R)-2,3,4,5,6-pentahydroxyhexyl]butanamide] | 126 to 1000 nM |
| COCCN(CCCC(C)c1ccc(C)c(CNC2(c3cnccc3-c3ccccc3OC3CC3)CC2)c1)C(=O)[C@@H](O)[C@@H](O)[C@H](O)[C@@H](O)CO (stereo partly drawn) [Compound I-302, (2S,3S,4R,5S)-N-(4-{3-[({1-[4-(2-cyclopropoxyphenyl)pyridin-3-yl]cyclopropyl}amino)methyl]-4-methylphenyl}pentyl)-2,3,4,5,6-pentahydroxy-N-(2-methoxyethyl)hexanamide] | < 100 nM |
| COc1ccccc1-c1ccncc1C1(NCc2cc(Cl)c(CCCCC(=O)NC[C@H](O)[C@@H](O)[C@H](O)[C@H](O)CO)cc2Cl)CC1 [Compound I-133, 5-{2,5-dichloro-4-[({1-[4-(2-methoxyphenyl)pyridin-3-yl]cyclopropyl}amino)methyl]phenyl}-N-[(2S,3R,4R,5R)-2,3,4,5,6-pentahydroxyhexyl]pentanamide] | 126 to 1000 nM |
